Data: patent US20140024716A1, “Composition Comprising S-Allyl-L-Cysteine as Active Ingredient for Preventing or Treating Gastrointestinal Disorders” (PHARMAKING CO., LTD., priority 2009, published 2014)
Several values for one entry are separate records, joined by “and”; a condition that tells them apart may be missing. Identical values can stand only once.

How the values were obtained:
[1] = system: gastric lesions of rats induced by aspirin; assay: Aspirin-induced gastric lesion animal model; assay type: in vivo, Sprague-Dawley rats; conditions: for Ulcer Area (mm^2), group mean: n = 6
Text: SAC was purchased from TCI Chemical Co. (Tokyo, Japan). Sterile water for injection (Model No. 73H5F21, Dae Han Pharmaceutical Co. Ltd.) was used as a vehicle, and Stillen® was used as a positive control material. 0.5% CMC-Na and sterile water for injection were used as excipients for Stillen®. Hydrochloric acid was purchased from Samjung Chemical, Co., ethanol was purchased from Baker, Co., aspirin was purchased from Sigma, Co., and indomethacin was purchased from Sigma, Co.
(§1) 7 to 8-week old male specific pathogen free (SPF) HsdKoat:Sprague-Dawley®™ SD®™rats (weight of 7-week old males was in the range of 208.44 to 227.39 g, and weight of 8-week old maleswas in the range of 223.85 to 245.03 g, purchased from Koatech, Co. Ltd., Gyunggido, Korea) were quarantined and acclimated in the Animal Lab for 7 days. The rats were bred at a temperature of 23 3° C., at a relative humidity of 55 15%, with light for 12 hours (light turned on at 08:00 and light turned off at 20:00) while air was ventilated 10 to 20 times/hr in the Animal Experiment Lab of Gyeonggi Bio-Center. Other environments for breeding which might influence the test for the entire test period were not considered for use. The rats were given free access to a solid laboratory diet (Harlan Co. Ltd., USA. Teklad certified global 18% protein rodent diet, 2918C) that was supplied by Folas International. […] The rats were given free access to tap water that was sterilized using a UV sterilizer and a micro filter with water bottles.
The rats were classified into a vehicle control group G1 to which only a vehicle was administered, a experimental group G2 to which 100 mg/kg of SAC was administered, a experimental group G3 to which 200 mg/kg of SAC was administered, a experimental group G4 to which 400 mg/kg of SAC was administered, and a positive control group G5 to which 100 mg/kg of Stillen® (55.6 mg/kg as an active ingredient) as a positive control material were administered. Each group included 8 rats in a hydrochloric acid-ethanol-induced animal model (Experiment Example 7) and included 6 rats in an aspirin-induced animal model (Experimental Example 8) and in an indomethacin-induced animal model (Experimental Example 9).
The test substance was directly administered to the stomach using an injection tube equipped with a sonde for oral administration in a single dose once per day.
The rats were fasted for more than 24 hours in a normal environment, the test substance was administered, and 200 mg/kg of aspirin in 0.15 mol/L HCl was orally administered after 30 minutes. After three hours from the aspirin administration, the rats were sacrificed under ether anesthesia and their stomachs including parts of the duodenum and esophagus were isolated. The stomachs were was fixed for 10 minutes by injecting 12 ml of 2% formalin. The greater curvature of each stomach was incised and unfolded, photographs of the gastric grandular region were taken, and then the areas of the lesions were measured using an image analyzer.
Gastric lesion inhibiting rate (%)=(average area of the vehicle control group-area of gastric lesion of each animal)/average area of the vehicle control group×100.

[2] = General observation (death, weight) of rats in gastric lesion tests; assay type: in vivo, Sprague-Dawley rats
Experimental: as §1, with “bottles. […]” for “bottles.”

[3] = system: Helicobacter pylori-producing toxin VacA; assay: Serum anti-s1 m1 VacA IgG (ELISA) in Helicobacter pylori-infected mice; assay type: in vivo, C57BL/6 mice; conditions: SAC1 and SAC2 groups (200 and 400 mg/kg SAC)
Experimental: S-allyl-L-Cysteine (SAC) was purchased from TCI Chemical Co. (Tokyo, Japan). Helicobacter pylori was American Type Culture Collection (ATCC) 43504 (cagA+, vacA s1-ml type) and cultured in a Mueller Hinton-Agar broth at 37° C. for 48 hours, under 5% CO2 microaerophilic conditions with a concentration of 1×10^9 CFU/ml.
8-week old male C57BL/6 mice were classified into 4 groups, i.e., a positive control group (to which Helicobacter pylori was administered; PC), a negative control group (to which saline was administered; NC), experimental group 1 (to which Helicobacter pylori and 200 mg/kg of SAC were administered; SAC1), and experimental group 2 (to which Helicobacter pylori and 400 mg/kg of SAC were administered; SAC2). Each group had 10 mice. White powdered SAC was diluted in tap water to concentrations of 20 mg/mL and 40 mg/mL and 10 μl/g (body weight) of the diluted SAC was orally administered to the mice of the SAC1 and SAC2 groups three times a week for 10 weeks. The mice were given free access to tap water for the entire test period. […]
Enzyme-linked immunosorbent assay (ELISA) was used in order to identify the effect of SAC on serum anti-Helicobacter pylori antibody-formation capability. […] 100 μl of 0.2 M sulfuric acid was added thereto to terminate the reaction and absorbance was measured at 450 nm.

## C=CCSC[C@H](N)C(=O)O [SAC, S-allyl-L-cysteine]
[1]; G2: 100 mg/kg SAC
  Ulcer area of individual animal (Animal number 1-6): 91.68 and 44.12 and 40.95 and 63.52 (2×) and 64.67
[1]; G2: 100 mg/kg SAC oral, 30 min before 200 mg/kg aspirin
  Ulcer Area (mm^2), group mean: 68.6±25.94 mm^2 and 68.6 mm^2
[1]; G3: 200 mg/kg SAC
  Ulcer area of individual animal (Animal number 1-6): 46.29 and 19.37 and 5.41 and 27.07 (2×) and 43.86
  Ulcer Area (mm^2), group mean: 31.4±16.99 mm^2 and 31.4 mm^2
[1]; G4: 400 mg/kg SAC
  Ulcer area of individual animal (Animal number 1-6): 63.26 and 9.34 and 70.28 and 40.03 (2×) and 11.58
  Ulcer Area (mm^2), group mean: 32.5±29.78 mm^2 and 32.5 mm^2
[1]; highest rate over SAC doses
  gastric lesion inhibiting rate (%) up to: about 85%
[2]; 100, 200, 400 mg/kg SAC oral single dose, rats
  death and other changes: No animals died and no other changes were observed
[2]; 100, 200, 400 mg/kg SAC oral, entire test period
  significant weight change with respect to administration: not observed
[3]
  production of antibody against VacA (anti-s1 m1 VacA IgG): inhibited in the same manner as in the anti-H. pylori IgG
